Experimental data reported in PMC4710522, “A Novel Triazolopyridine-Based Spleen Tyrosine Kinase Inhibitor That Arrests Joint Inflammation” (PLoS ONE, 2016).

Columns and labels:
[1] = biological target: T1, JAK2 (Homo sapiens, UniProt O60674); assay: JAK2 HTRF assay; format: biochemical
T1 construct: purchased Millipore 14-511
Procedure: CC-509 was prepared at a concentration of 1.5 mM in DMSO followed by 3-fold dilutions in Greiner […] polypropylene plates. A 1:4 dilution of compounds by 8 μL/well transfer from the polypropylene plates to 24 μL/well Assay Buffer (50 mM HEPES pH 7.6, 1 mM DTT, 10 mM MgCl2, 0.01% Triton X100, 0.01% BSA and 0.1 mM EDTA) in Costar 3573 384 well black plates was then performed. Kinase (13 μL/well of 4.6 ng/mL JAK2, Millipore 14–511) or Assay Buffer only (background controls) were added to Costar 3573 384-well black plates and compound (2 μL/well) was added from the 1:4 dilution plate. […] Time resolved fluorescence was read in assay plates on a PerkinElmer EnVision. […]
For the TEL-Syk assay, the intensity values for the 700 and 800 channel were exported as text files in ActivityBase (IDBS, Guildford, UK) to derive the ratios that reflect kinase activity. […] For the JAK2 HEL and Ramos NFAT β-lactamase assays, the fluorescence values obtained at 460 nm and 530 nm were exported into ActivityBase to calculate response ratios. […] Evans blue dye extravasation was expressed as mean ± SEM and % inhibition for the test article groups was normalized to the cromolyn positive control. […] The mean data from each group was plotted and either the AUC(day 11–18) or % inhibition on day 18 was calculated. Data is expressed as mean ± SEM of each group with n = 6–12. […]

[2] = biological target: T2, MEK2_h (Homo sapiens, UniProt P36507); assay: SelectScreen kinase assay; format: biochemical; details: 100 µM ATP, read-out: % control
T2 construct: purchased Life Technologies (Invitrogen) SelectScreen, Z'-LYTE / Adapta

[3] = biological target: T3, KDR (Homo sapiens, UniProt P35968); assay: KDR HTRF assay; format: biochemical; details: in-house, mean ± SD
T3 construct: purchased Life Technologies PV3660
Procedure: CC-509 was prepared at a concentration of 1.5 mM in DMSO followed by 3-fold dilutions in Greiner […] polypropylene plates. A 1:4 dilution of compounds by 8 μL/well transfer from the polypropylene plates to 24 μL/well Assay Buffer (50 mM HEPES pH 7.6, 1 mM DTT, 10 mM MgCl2, 0.01% Triton X-100, 0.01% BSA and 0.1 mM EDTA) in Costar 3573 384 well black plates was then performed. Kinase (13 μL/well of 7.7 ng/ml KDR (Life Technologies, Grand Island, NY PV3660) in Assay Buffer) or Assay Buffer only (background controls) were added to Costar 3573 384-well black plates and compound (2 μL/ well) was added from the 1:4 dilution plate. […] Time resolved fluorescence was read in assay plates on a PerkinElmer EnVision. […] The IC50 value was determined as described in the data fitting section below.
For the TEL-Syk assay, the intensity values for the 700 and 800 channel were exported as text files in ActivityBase (IDBS, Guildford, UK) to derive the ratios that reflect kinase activity. […] For the JAK2 HEL and Ramos NFAT β-lactamase assays, the fluorescence values obtained at 460 nm and 530 nm were exported into ActivityBase to calculate response ratios. […] Evans blue dye extravasation was expressed as mean ± SEM and % inhibition for the test article groups was normalized to the cromolyn positive control. […] Data is expressed as mean ± SEM of each group with n = 6–12. […]

[4] = biological target: T4, NEK7_h (Homo sapiens, UniProt Q8TDX7); assay: SelectScreen kinase assay; format: biochemical; details: KM ATP, read-out: % control
T4 construct: purchased Life Technologies (Invitrogen) SelectScreen, Z'-LYTE / Adapta

[5] = test system: rat collagen-induced arthritis model; assay: rat collagen-induced arthritis (CIA) model, paw swelling; format: in vivo; details: for inhibition of paw swelling: 8 days
Procedure: Female Lewis rats (150 – 170g; Charles River Laboratories) were house standard shoebox cages, fed Harlan-Tekald diet and water ad libitum and maintained on a 12h light/dark cycle. For induction of arthritis rats were anesthetized with isofluorane and their entire dorsal area shaved. Rats were injected (intradermal) with 100 μl of equal volumes of collagen (Chrondrex, Redmond, WA) and IFA (Sigma Chemicals, St. Louis, MO) emulsion in 10 sites across the dorsal region. At disease onset 11 days following immunization animals were randomized into groups based on their ankle measurements and test article administration was initiated. Rats were dosed orally with vehicle (20% Captisol®), Indomethacin (Sigma Chemicals, St. Louis, MO, 2mg/kg) or CC-509 (15, 25mg/kg QD or 15mg/kg BID) in a dose volume of 5ml/kg. […] On the last day of the study animals were split into 2 cohorts and bleed twice via tail bleed under isofluorane anesthesia and a third terminal bleed following CO2 asphyxiation to obtain a time course of plasma compound exposure at 30minutes, 1, 2, 4, 8 and 24h after the last dose of CC-509.
For the TEL-Syk assay, the intensity values for the 700 and 800 channel were exported as text files in ActivityBase (IDBS, Guildford, UK) to derive the ratios that reflect kinase activity. For LAD2 experiments, enzyme activity values were exported as text files into ActivityBase to calculate “percent release” according to the formula: 100* supernatant OD405/ (supernatant OD405 + (pellet OD405*pellet dilution factor)). For the basophil and B-cells assays, flow cytometry data was exported from the FACS Array and processed using FloJo software package (TreeStar, Inc., Ashland, Oregon). For the JAK2 HEL and Ramos NFAT β-lactamase assays, the fluorescence values obtained at 460 nm and 530 nm were exported into ActivityBase to calculate response ratios. For the neutrophil, macrophage, KDR, and JAK1/3 assays, raw values were exported into ActivityBase to calculate percent inhibition. All IC50 calculations were generated using XLfit (IDBS, Guildford, UK) algorithm 205 within Excel. For PCA, the OD from the saline injected site was subtracted from the OD from the anti-DNP IgE injected site. Evans blue dye extravasation was expressed as mean ± SEM and % inhibition for the test article groups was normalized to the cromolyn positive control. For the CIA model paw measurements (left and right ankle diameter) were taken for each individual animal and averaged. The mean data from each group was plotted and either the AUC(day 11–18) or % inhibition on day 18 was calculated. Data is expressed as mean ± SEM of each group with n = 6–12. Statistical analysis was performed with Prism Graphpad using one-way ANOVA followed by Dunnett’s comparison using the vehicle group as the control or for measurements over time a 2 way ANOVA followed by a Dunnett’s multiple comparison test. Statistical significance was deemed as * = p<0.05, **p<0.01, ***p<0.001 and p<0.0001.

[6] = male rats; cited from earlier work

T1 sequence (O60674 whole entry): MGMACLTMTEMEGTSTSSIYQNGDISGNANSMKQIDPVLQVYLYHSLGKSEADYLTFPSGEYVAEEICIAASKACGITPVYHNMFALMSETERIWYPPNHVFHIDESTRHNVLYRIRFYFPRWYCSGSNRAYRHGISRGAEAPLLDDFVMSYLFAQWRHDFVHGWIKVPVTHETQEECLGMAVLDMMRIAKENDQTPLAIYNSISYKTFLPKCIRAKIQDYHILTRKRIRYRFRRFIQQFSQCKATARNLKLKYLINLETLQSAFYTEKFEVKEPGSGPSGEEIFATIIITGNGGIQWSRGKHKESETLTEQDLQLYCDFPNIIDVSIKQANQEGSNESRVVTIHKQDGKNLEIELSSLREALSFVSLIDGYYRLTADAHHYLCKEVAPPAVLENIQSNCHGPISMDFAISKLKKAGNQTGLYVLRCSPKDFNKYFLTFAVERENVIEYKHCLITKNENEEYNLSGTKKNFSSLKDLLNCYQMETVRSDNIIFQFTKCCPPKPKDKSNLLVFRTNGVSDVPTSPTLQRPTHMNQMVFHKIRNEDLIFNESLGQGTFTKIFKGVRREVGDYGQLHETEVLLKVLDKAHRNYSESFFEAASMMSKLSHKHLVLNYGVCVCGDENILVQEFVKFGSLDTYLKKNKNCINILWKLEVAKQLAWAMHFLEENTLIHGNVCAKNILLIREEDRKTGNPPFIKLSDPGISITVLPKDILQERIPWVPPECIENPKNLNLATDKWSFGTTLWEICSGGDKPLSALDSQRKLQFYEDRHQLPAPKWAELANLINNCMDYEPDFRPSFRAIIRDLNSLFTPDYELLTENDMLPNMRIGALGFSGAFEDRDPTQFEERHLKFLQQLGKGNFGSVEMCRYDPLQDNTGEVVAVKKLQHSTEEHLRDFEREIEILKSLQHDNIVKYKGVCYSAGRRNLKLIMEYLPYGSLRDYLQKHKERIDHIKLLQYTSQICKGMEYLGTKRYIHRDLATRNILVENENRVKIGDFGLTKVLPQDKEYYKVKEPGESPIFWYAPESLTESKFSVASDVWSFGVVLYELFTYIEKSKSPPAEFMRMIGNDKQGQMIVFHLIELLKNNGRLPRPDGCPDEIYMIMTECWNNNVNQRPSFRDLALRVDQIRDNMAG
T2 sequence (P36507 whole entry): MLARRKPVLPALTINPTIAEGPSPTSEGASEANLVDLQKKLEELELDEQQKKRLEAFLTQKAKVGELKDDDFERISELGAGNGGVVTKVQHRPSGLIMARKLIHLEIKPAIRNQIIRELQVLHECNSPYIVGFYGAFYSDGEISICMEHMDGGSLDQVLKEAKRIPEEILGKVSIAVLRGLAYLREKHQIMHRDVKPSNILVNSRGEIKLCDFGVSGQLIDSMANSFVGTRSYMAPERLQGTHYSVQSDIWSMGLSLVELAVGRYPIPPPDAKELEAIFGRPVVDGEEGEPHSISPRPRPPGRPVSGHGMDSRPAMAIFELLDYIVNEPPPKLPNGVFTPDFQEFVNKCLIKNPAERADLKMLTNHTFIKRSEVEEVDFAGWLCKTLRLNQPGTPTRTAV
T4 sequence (Q8TDX7 whole entry): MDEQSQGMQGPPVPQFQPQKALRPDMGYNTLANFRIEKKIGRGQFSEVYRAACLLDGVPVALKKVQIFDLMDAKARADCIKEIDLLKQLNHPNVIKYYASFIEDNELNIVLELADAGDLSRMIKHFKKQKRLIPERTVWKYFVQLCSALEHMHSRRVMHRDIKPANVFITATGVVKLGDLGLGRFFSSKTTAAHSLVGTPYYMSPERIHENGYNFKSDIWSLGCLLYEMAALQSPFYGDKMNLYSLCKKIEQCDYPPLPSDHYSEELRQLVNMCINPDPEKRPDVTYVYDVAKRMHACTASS
T3 sequence (P35968 20-1356): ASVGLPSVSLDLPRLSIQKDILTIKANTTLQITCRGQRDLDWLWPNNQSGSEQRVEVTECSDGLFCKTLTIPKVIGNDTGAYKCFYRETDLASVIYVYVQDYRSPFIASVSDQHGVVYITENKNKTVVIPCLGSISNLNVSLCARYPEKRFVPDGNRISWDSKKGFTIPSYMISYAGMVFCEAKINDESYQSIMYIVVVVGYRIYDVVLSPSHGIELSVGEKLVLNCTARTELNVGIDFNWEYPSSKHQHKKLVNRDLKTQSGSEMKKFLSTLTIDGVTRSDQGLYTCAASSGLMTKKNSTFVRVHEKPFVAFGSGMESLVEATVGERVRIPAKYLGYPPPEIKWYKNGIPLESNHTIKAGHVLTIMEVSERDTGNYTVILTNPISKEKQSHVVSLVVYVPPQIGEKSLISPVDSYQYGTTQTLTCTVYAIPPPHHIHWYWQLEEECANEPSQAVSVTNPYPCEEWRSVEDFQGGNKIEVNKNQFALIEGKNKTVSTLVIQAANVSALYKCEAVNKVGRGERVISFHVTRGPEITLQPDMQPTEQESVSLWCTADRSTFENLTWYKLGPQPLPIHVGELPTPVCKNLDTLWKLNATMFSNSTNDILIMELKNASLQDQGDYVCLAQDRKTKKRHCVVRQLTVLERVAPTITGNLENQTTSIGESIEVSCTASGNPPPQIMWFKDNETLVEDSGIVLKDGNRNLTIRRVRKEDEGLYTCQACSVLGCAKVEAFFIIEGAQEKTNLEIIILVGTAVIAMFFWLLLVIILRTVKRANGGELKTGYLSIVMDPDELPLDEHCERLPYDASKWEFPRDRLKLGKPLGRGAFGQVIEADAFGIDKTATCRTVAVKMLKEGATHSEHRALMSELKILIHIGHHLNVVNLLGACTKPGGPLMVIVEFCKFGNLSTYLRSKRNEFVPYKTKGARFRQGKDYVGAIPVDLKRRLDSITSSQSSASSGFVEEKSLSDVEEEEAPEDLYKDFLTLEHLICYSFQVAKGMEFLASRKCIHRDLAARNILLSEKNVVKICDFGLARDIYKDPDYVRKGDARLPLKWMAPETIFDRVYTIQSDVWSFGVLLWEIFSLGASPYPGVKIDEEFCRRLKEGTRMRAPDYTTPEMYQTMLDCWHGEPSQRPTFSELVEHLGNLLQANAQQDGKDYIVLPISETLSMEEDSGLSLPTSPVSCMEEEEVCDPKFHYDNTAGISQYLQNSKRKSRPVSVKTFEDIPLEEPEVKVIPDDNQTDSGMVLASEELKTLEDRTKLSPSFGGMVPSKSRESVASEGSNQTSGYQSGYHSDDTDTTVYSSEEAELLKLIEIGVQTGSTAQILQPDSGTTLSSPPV

| SMILES | fold less potent than R406, Jak2 enzyme ([1]; data not shown) [fold] | IC50 ([1]; in-house, mean ± SD) [nM] | remaining activity at 3 µM [2] [%] | IC50 [3] [nM] | remaining activity at 3 µM [4] [%] | inhibition of paw swelling ([5]; 15 mg/kg b.i.d. oral, p<0.001) [%] | inhibition of paw swelling ([5]; 15 mg/kg q.d. oral, not significant) [%] | inhibition of paw swelling ([5]; 25 mg/kg q.d. oral, p<0.0001) [%] | ED50 ([5]; rat CIA model) [mg/kg] | exposure producing myelosuppression [6] [µM·h] |
| --- | --- | --- | --- | --- | --- | --- | --- | --- | --- | --- |
| c1cc(CC2CCOCC2)n2nc(Nc3ccc4c(NC5CCOCC5)n[nH]c4c3)nc2c1 [CC-509, [3-(2H-3,4,5,6-tetrahydropyran-4-ylamino)(1H-indazol-6-yl)][5-(2H-3,4,5,6-tetrahydropyran-4-ylmethyl)(2H-1,2,4-triazolo[1,5-a]pyridin-2-yl)]amine] | 22 | 19 ± 2 | 73 | 150 ± 30 | 102 | 72 | 32 | 74 | ~10 | – |
| COc1cc(Nc2ncc(F)c(Nc3ccc4c(n3)NC(=O)C(C)(C)O4)n2)cc(OC)c1OC [R406, reference compound] | – | – | – | – | – | – | – | – | – | 120 |
